Results published in patent US9096632B2, “Modulator of activity of adenylate cyclase” (Public University Corporation Yokohama City University, priority 2010, dated 2015).

Legend:
[1] = Toxicity test (blood BUN, creatinine, GPT, GOT); format: in vivo, mouse; details: 15 mg/kg/day for 7 days, osmotic mini-pump
Method: FIG. 11 Toxicity test. Vidarabine, V2E, V3E and V5E were administered individually with an osmotic mini-pump (15 mg/kg/day for 7 days). Then, blood samples were taken and subjected to BUN, creatinine, GPT and GOT measurements. The results were compared with the results from a control group.
Vidarabine, V2E, V3E and V5E were administered individually to WT (C57BL/6N; Nippon SLC) with an osmotic mini-pump (15 mg/kg/day for 7 days). Then, blood samples were taken and subjected to BUN, creatinine, OPT and GOT measurements. The results were compared with the results from control group.

[2] = test system: rat embryo cultured cardiac myocytes; test: TUNEL staining of cardiac myocytes (isoproterenol-induced apoptosis); format: cell-based; details: 10^−5 M compound with isoproterenol 10^−5 M, 48 hours
Method: FIG. 10 TUNEL staining of cardiac myocytes. To a culture both of neonatal rat cardiac myocytes, isoproterenol (10^−5 M) either alone or in combination with vidarabine, V2E, V3E or VSE was added for stimulation (48 hours). Then, apoptosis positive cells were evaluated by TUNEL staining.
<TUNEL Staining of Cardiac Myocytes>
A culture broth of rat embryo cultured cardiac myocytes (pregnant Wistar rats were purchased from Nippon SLC) was stimulated (48 hours) with isoproterenol (10^−5 M) either alone or in combination with vidarabine, V2E, V3E or V5E (10^−5 M). Then, apoptosis positive cells were evaluated by TUNEL staining.

[3] = test system: cardiac function (LVEF) of isoproterenol-loaded mice; test: Chronic catecholamine loading experiment (isoproterenol heart failure model); format: in vivo, mouse; details: 15 mg/kg/day for 7 days, osmotic mini-pump, with isoproterenol 60 mg/kg/day; C57BL/6N
Method: FIG. 9 Prophylactic effects on heart failure. Isoproterenol alone (60 mg/kg/day for 7 days) was administered to wild-type mice (C57BL/6N) for one week with an osmotic mini-pump (Alzet2001) (ISO). Other WT received isoproterenol with vidarabine, V2E, V3E or V5E (15 mg/kg/day for 7 days).
<Chronic Catecholamine Loading Experiment>
An osmotic mini-pump filled with isoproterenol was hypodermically implanted in mice, and isoproterenol was administered for 1 week continuously in a sustained-release manner (60 mg/kg). The cardiac function of mice (EF, ejection fraction) was measured by cardiac ultrasonography, and values before and after isoproterenol administration were compared. It is generally known that when isoproterenol is administered to mice with a mini-pump, their cardiac function (EF) decreases (i.e., they manifest heart failure).
Isoproterenol alone (60 mg/kg/day for 7 days) was administered to WT (C57BL/6N) for 1 week with an osmotic mini-pump (Alzet 2001). Other WT received isoproterenol and, at the same time, vidarabine, V2E, V3E or V5E (15 mg/kg/day for 7 days).

H9c2 cells = test: cAMP accumulation assay in H9c2 cells, forskolin stimulation; format: cell-based, rat; details: 50 μM compound, 100 μM forskolin, n=1, preliminary
Method: […] <H9c2 Cultured Cells> […] No. D6429) in the presence of 95% air+5% CO2 at 37° C. 80-90% confluent H9c2 cells were suspended in 10% FBS-containing DMEM. The cell suspension (500 μl) was added to each well of 24-well plates to give a density of 40,000 cells/well, and incubated overnight at 37° C. Subsequently, cells were incubated in serum-free DMEM (500 μl/well) for 48 hours and subjected to cAMP accumulation assay. <cAMP Accumulation Assay> H9c2 cells were incubated in the presence of 500 μM IBMX for 20 minutes at 37° C. Then, various vidarabine derivatives were added to the culture broth to give a concentration of 50 μM. Cells were further incubated for 10 minutes at 37° C. […] Cells were further incubated at 4° C. overnight. Similar experiments were also carried out on rat adult cultured cardiac myocytes under stimulation with various vidarabine derivatives (10 μM) and forskolin (5 μM). In both membrane adenylyl cyclase assay and cAMP accumulation assay, the amount of cAMP contained in TCA solution was determined by radioimmunoassay using […].

[4] = target: T1, adenylyl cyclase activity in the heart; test: Membrane adenylyl cyclase assay, WT heart membrane, forskolin-stimulated; format: biochemical, mouse; details: WT; estimated from 10, 50 and 100 μM; 50 μM forskolin
T1 construct: IC50 on adenylyl cyclase activity in the heart; other: WT; estimated from 10, 50 and 100 μM
From the text: FIG. 3 Inhibitory effects of individual vidarabine derivatives on adenylyl cyclase activity in the striatum, heart and lung. With adenylyl cyclase activity in the presence of […] but in the absence of inhibitors being taken as 100, the reductions in adenylyl cyclase activity upon treatment with various inhibitors at the concentrations indicated on the horizontal axis are shown (n=4, means±S.E.).
<Membrane Adenylyl Cyclase Assay>
Striatal, cardiac and pulmonary tissues were removed from WT (C57BL) (Charles River Laboratories Japan, Inc.) and AC5KO (Circ. Res. 93: 364-371, 2003), both of which were 12-15 weeks of age after birth, and individual membrane protein fractions were prepared therefrom. The resultant membrane preparations were incubated with a reaction mixture (20 mM HEPES, pH 8, 5 mM MgCl2, 0.5 mM EDTA, pH 8, 0.1 mM ATP, 1 mM phospho creatine, 8 U/mL creatine phosphor kinase, 200 μM IBMX) at 30° C. in the presence of forskolin (an activator of adenylyl cyclase) (50 μM, Sigma Cat. No. F6886) and various compounds, to thereby allow production of cAMP. In this assay, striatum- or lung-derived membrane preparations were used in an amount of 1 μg, and heart-derived membrane preparation was used in an amount of 2 μg. 15 minutes (striatum and lung) or 30 minutes (heart) after its start, the reaction was terminated by adding trichloroacetate (TCA) solution to give a final concentration of 5%. Then, the protein was precipitated by centrifugation (13,500×g, 10 min).
In both membrane adenylyl cyclase assay and cAMP accumulation assay, the amount of cAMP contained in TCA solution was determined by radioimmunoassay using […].

| Structure (SMILES) | BUN compared with control group [1] | GOT compared with control group [1] | OPT compared with control group [1] | creatinine compared with control group [1] | inhibitory effect on isoproterenol stimulation-induced apoptosis (TUNEL positive cells) [2] | inhibition of the isoproterenol-induced decrease of cardiac function (LVEF) [3] | level of cAMP accumulated in response to forskolin (relative to control) (H9c2 cells) | IC50 [4] |
| --- | --- | --- | --- | --- | --- | --- | --- | --- |
| CN(C)CC(=O)OC1C(O)C(CO)OC1n1cnc2c(N)ncnc21 (stereo not shown) [V2E, 2-O—(N,N-Dimethylglycyl)Vidarabine] | No significant increase | No significant increase | No significant increase | No significant increase | comparable to the effect of vidarabine | comparable to that of vidarabine | about 57.1% | 17.8 µM |
| CN(C)CC(=O)OC1C(CO)OC(n2cnc3c(N)ncnc32)C1O (stereo not shown) [V3E, 3-O—(N,N-Dimethylglycyl)Vidarabine] | No significant increase | No significant increase | No significant increase | No significant increase | comparable to the effect of vidarabine | comparable to that of vidarabine | about 45.7% | 19.9 µM |
| CN(C)CC(=O)OCC1OC(n2cnc3c(N)ncnc32)C(O)C1O (stereo not shown) [V5E, 5-O—(N,N-Dimethylglycyl)Vidarabine] | No significant increase | No significant increase | No significant increase | No significant increase | comparable to the effect of vidarabine | comparable to that of vidarabine | about 82.5% | 42.9 µM |
| Nc1ncnc2c1ncn2[C@@H]1O[C@H](CO)[C@@H](O)[C@@H]1O [vidarabine, reference compound] | No significant increase | No significant increase | No significant increase | No significant increase | – | significantly inhibited | about 35.1% | 7.7 µM |
